Laboratory results taken from PubChem BioAssay (NCI).
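Tested at 5 concentrations; 48 h exposure; 96-well plates; endpoints linearly interpolated, else capped at highest concentration. GI50 is the concentration that inhibits growth by half. The concentration for full growth arrest is given as TGI.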

Legend:
Experiment in all cases: NCI tumour cell line growth inhibition, 48 h
NCI-H23 lung = system: NCI-H23 lung
SF-268 CNS = system: SF-268 CNS
BT-549 breast = system: BT-549 breast
COLO 205 colon = system: COLO 205 colon
TK-10 renal = system: TK-10 renal
SNB-75 CNS = system: SNB-75 CNS
PC-3 prostate = system: PC-3 prostate
OVCAR-8 ovarian = system: OVCAR-8 ovarian
SK-MEL-2 melanoma = system: SK-MEL-2 melanoma
A498 renal = system: A498 renal
SR leukemia = system: SR leukemia
A549 NSCLC = system: A549 NSCLC
HCT-15 colon = system: HCT-15 colon
LOX IMVI melanoma = system: LOX IMVI melanoma
EKVX NSCLC = system: EKVX NSCLC
HCC-2998 colon = system: HCC-2998 colon
SW-620 colon = system: SW-620 colon
IGROV1 ovarian = system: IGROV1 ovarian
MCF7 breast = system: MCF7 breast
HS 578T breast = system: HS 578T breast
SK-MEL-28 melanoma = system: SK-MEL-28 melanoma
UACC-62 melanoma = system: UACC-62 melanoma
NCI/ADR-RES ovarian = system: NCI/ADR-RES ovarian
CCRF-CEM leukemia = system: CCRF-CEM leukemia
NCI-H522 lung = system: NCI-H522 lung
HOP-92 NSCLC = system: HOP-92 NSCLC
SNB-19 CNS = system: SNB-19 CNS
T-47D breast = system: T-47D breast
MALME-3M melanoma = system: MALME-3M melanoma
HCT-116 colon = system: HCT-116 colon
U251 CNS = system: U251 CNS
RXF 393 renal = system: RXF 393 renal
SF-539 CNS = system: SF-539 CNS
RPMI-8226 leukemia = system: RPMI-8226 leukemia
OVCAR-3 ovarian = system: OVCAR-3 ovarian
SF-295 CNS = system: SF-295 CNS
DU-145 prostate = system: DU-145 prostate
K-562 leukemia = system: K-562 leukemia
786-0 renal = system: 786-0 renal
UACC-257 melanoma = system: UACC-257 melanoma
ACHN renal = system: ACHN renal
OVCAR-4 ovarian = system: OVCAR-4 ovarian
MDA-MB-435 = system: MDA-MB-435
SK-MEL-5 melanoma = system: SK-MEL-5 melanoma
SN12C renal = system: SN12C renal
HT29 colon = system: HT29 colon
M14 melanoma = system: M14 melanoma
KM12 colon = system: KM12 colon
HOP-62 NSCLC = system: HOP-62 NSCLC
UO-31 renal = system: UO-31 renal
MDA-MB-231 breast = system: MDA-MB-231 breast
NCI-H460 lung = system: NCI-H460 lung
MDA-MB-468 breast = system: MDA-MB-468 breast
OVCAR-5 ovarian = system: OVCAR-5 ovarian
NCI-H226 lung = system: NCI-H226 lung
CAKI-1 renal = system: CAKI-1 renal
MOLT-4 leukemia = system: MOLT-4 leukemia
HL-60(TB) leukemia = system: HL-60(TB) leukemia
SK-OV-3 ovarian = system: SK-OV-3 ovarian

Work on `C[C@@H](Nc1c(C#N)cnc2ccc(-c3cnc4[nH]ncc4c3)cc12)c1ccccc1` yielded a GI50 (NCI-H23 lung) of 4.31 µM, a TGI (NCI-H23 lung) of 22 µM and a GI50 (SF-268 CNS) of 3.56 µM. It also gave a TGI (SF-268 CNS) of 34 µM, a GI50 (BT-549 breast) of 0.353 µM and a TGI (BT-549 breast) of 4.83 µM. It also gave a GI50 (COLO 205 colon) of 16.3 µM, a TGI (COLO 205 colon) of 37 µM and a GI50 (TK-10 renal) of 2.96 µM. It also gave a TGI (TK-10 renal) of 8.36 µM, a GI50 (SNB-75 CNS) of 1.1 µM and a TGI (SNB-75 CNS) of 5.16 µM. The GI50 (PC-3 prostate) was 2.58 µM, the TGI (PC-3 prostate) was greater than 100 µM and the GI50 (OVCAR-8 ovarian) was 2.33 µM. The TGI (OVCAR-8 ovarian) was 23.5 µM, the GI50 (SK-MEL-2 melanoma) was 3.23 µM and the TGI (SK-MEL-2 melanoma) was 16 µM. For the same compound, the GI50 (A498 renal) was 2.55 µM, the TGI (A498 renal) was 6.8 µM and the GI50 (SR leukemia) was 2.23 µM. The TGI (SR leukemia) was 19.7 µM, the GI50 (A549 NSCLC) was 2.53 µM and the TGI (A549 NSCLC) was 10.9 µM. It also gave a GI50 (HCT-15 colon) of 3.17 µM, a TGI (HCT-15 colon) of 16.4 µM and a GI50 (LOX IMVI melanoma) of 3.12 µM. The TGI (LOX IMVI melanoma) was 16.7 µM, the GI50 (EKVX NSCLC) was 0.827 µM and the TGI (EKVX NSCLC) was 4.45 µM. It also gave a GI50 (HCC-2998 colon) of 4.69 µM, a TGI (HCC-2998 colon) of 26 µM and a GI50 (SW-620 colon) of 4.65 µM. For the same compound, the TGI (SW-620 colon) was 23.2 µM, the GI50 (IGROV1 ovarian) was 1.91 µM and the TGI (IGROV1 ovarian) was 4.07 µM. For the same compound, the GI50 (MCF7 breast) was 1.87 µM, the TGI (MCF7 breast) was 7.81 µM and the GI50 (HS 578T breast) was 1.27 µM. For the same compound, the TGI (HS 578T breast) was 5.37 µM, the GI50 (SK-MEL-28 melanoma) was 2.06 µM and the TGI (SK-MEL-28 melanoma) was 14.4 µM. For the same compound, the GI50 (UACC-62 melanoma) was 1.94 µM, the TGI (UACC-62 melanoma) was 5.86 µM and the GI50 (NCI/ADR-RES ovarian) was 3.71 µM. For the same compound, the TGI (NCI/ADR-RES ovarian) was 34.8 µM, the GI50 (CCRF-CEM leukemia) was 2.46 µM and the TGI (CCRF-CEM leukemia) was greater than 100 µM. The GI50 (NCI-H522 lung) was 1.71 µM, the TGI (NCI-H522 lung) was 11.6 µM and the GI50 (HOP-92 NSCLC) was 1.08 µM. The TGI (HOP-92 NSCLC) was 7.29 µM, the GI50 (SNB-19 CNS) was 2.48 µM and the TGI (SNB-19 CNS) was 28 µM. The GI50 (T-47D breast) was 2.88 µM, the TGI (T-47D breast) was 8.36 µM and the GI50 (MALME-3M melanoma) was 1.16 µM. It also gave a TGI (MALME-3M melanoma) of 7.27 µM, a GI50 (HCT-116 colon) of 3.77 µM and a TGI (HCT-116 colon) of 16.1 µM. For the same compound, the GI50 (U251 CNS) was 4.91 µM, the TGI (U251 CNS) was 22.7 µM and the GI50 (RXF 393 renal) was 1.26 µM. For the same compound, the TGI (RXF 393 renal) was 3.55 µM, the GI50 (SF-539 CNS) was 2.59 µM and the TGI (SF-539 CNS) was 12.2 µM. The GI50 (RPMI-8226 leukemia) was 2.04 µM, the TGI (RPMI-8226 leukemia) was 11.3 µM and the GI50 (OVCAR-3 ovarian) was 2.14 µM. It also gave a TGI (OVCAR-3 ovarian) of 11.9 µM, a GI50 (SF-295 CNS) of 2.11 µM and a TGI (SF-295 CNS) of 10.5 µM. It also gave a GI50 (DU-145 prostate) of 2.76 µM, a TGI (DU-145 prostate) of 25.2 µM and a GI50 (K-562 leukemia) of 4.67 µM. For the same compound, the TGI (K-562 leukemia) was greater than 100 µM, the GI50 (786-0 renal) was 2.74 µM and the TGI (786-0 renal) was 11.3 µM. For the same compound, the GI50 (UACC-257 melanoma) was 3.24 µM, the TGI (UACC-257 melanoma) was 16.3 µM and the GI50 (ACHN renal) was 0.699 µM. The TGI (ACHN renal) was 11.3 µM, the GI50 (OVCAR-4 ovarian) was 3.47 µM and the TGI (OVCAR-4 ovarian) was 18 µM. For the same compound, the GI50 (MDA-MB-435) was 3.5 µM, the TGI (MDA-MB-435) was 19.5 µM and the GI50 (SK-MEL-5 melanoma) was 1.71 µM. For the same compound, the TGI (SK-MEL-5 melanoma) was 5.96 µM, the GI50 (SN12C renal) was 1.57 µM and the TGI (SN12C renal) was 12.8 µM. The GI50 (HT29 colon) was 14.5 µM, the TGI (HT29 colon) was 35.2 µM and the GI50 (M14 melanoma) was 2.43 µM. It also gave a TGI (M14 melanoma) of 19.1 µM, a GI50 (KM12 colon) of 4.2 µM and a TGI (KM12 colon) of 21.5 µM. The GI50 (HOP-62 NSCLC) was 3.03 µM, the TGI (HOP-62 NSCLC) was 19 µM and the GI50 (UO-31 renal) was 0.468 µM. The TGI (UO-31 renal) was 10.8 µM, the GI50 (MDA-MB-231 breast) was 2.38 µM and the TGI (MDA-MB-231 breast) was 13.8 µM. For the same compound, the GI50 (NCI-H460 lung) was 2.66 µM, the TGI (NCI-H460 lung) was 13.2 µM and the GI50 (MDA-MB-468 breast) was 1.16 µM. For the same compound, the TGI (MDA-MB-468 breast) was 2.67 µM, the GI50 (OVCAR-5 ovarian) was 3.89 µM and the TGI (OVCAR-5 ovarian) was 18.3 µM. For the same compound, the GI50 (NCI-H226 lung) was 2.85 µM, the TGI (NCI-H226 lung) was 14.3 µM and the GI50 (CAKI-1 renal) was 2.78 µM. For the same compound, the TGI (CAKI-1 renal) was 10.9 µM, the GI50 (MOLT-4 leukemia) was 1.61 µM and the TGI (MOLT-4 leukemia) was 5.02 µM. It also gave a GI50 (HL-60(TB) leukemia) of 1.74 µM, a TGI (HL-60(TB) leukemia) of 7.98 µM and a GI50 (SK-OV-3 ovarian) of 2.16 µM. The TGI (SK-OV-3 ovarian) was 7.98 µM.
